Where a name gives a salt, the structure may show the parent alone. Marks after values point to notes of the source that are not given here.

Series [1] concerns insulin resistant 3T3 adipocytes. The series can be described thus: Glucose uptake in dexamethasone-induced insulin resistant 3T3 adipocytes. The format is cell-based. Here is the method: Fully differentiated 3T3 adipocytes generated in 24-well plates were used after day 8 of differentiation. Insulin resistance was induced essentially as described before. Briefly, adipocytes were incubated with 100 nM dexamethasone for six consecutive days. […].
Glucose uptake was measured essentially according to the method of Gao et al using ^14C-labeled 2-deoxy glucose as the tracer. Activity in this assay is defined as a statistically significant increase in glucose uptake of minimum 50% compared to the uptake seen in cells exposed to vehicle. Effect of wortmannin on glucose uptake was studied according to the method of Hausdorff et al using 100 nM wortmannin.

Series [2] has as its system db/db mice. The series can be described thus: Antidiabetic activity in db/db mice, once daily oral dosing. The format is in vivo. How it is done:
After two weeks of acclimatization, db/db mice were deprived of food for 4h. Their weights were measured and blood was obtained by retro-orbital puncture for the determination of plasma glucose. The animals were randomized into groups (7-10/group) based on body weight and plasma glucose levels. Animals were dosed orally once a day, between 9.00 -10.00am for 15 consecutive days, with either P1736 (150mg/kg) or metformin (150mg/kg) or 0.5% carboxy methyl cellulose (CMC) vehicle. The dose of 150 mg/kg was chosen for once-a-day dosing of P1736, on the basis of its pharmacokinetic profile and to maintain high plasma concentrations. Body weight was measured daily. On days 10 and 15, blood samples were collected at the end of the 4h fasting after drug administration. Plasma samples were analysed for biochemical parameters, by enzymatic methods using autoanalyser 902(Hitachi instruments, Japan). Plasma adiponectin levels were measured using mouse ELISA kits (Millipore Inc. USA).

Series [3] relates to soleus muscles of ob/ob mice. In words: Ex vivo muscle glucose uptake in ob/ob mice. As to conditions: for Glucose Uptake in soleus muscle (% Increase): ex vivo after chronic administration. How it is done:
On day 9, food was withheld for 4 h and blood was collected for the analysis of plasma chemistry and plasma insulin levels. On days 12 and 13, 3-4 animals from each group were sacrificed and soleus muscles were excised. Radiolabelled glucose uptake was measured in the isolated soleus muscles by the method of Zierath and colleagues. Plasma Insulin was estimated using mouse ELISA kit (Linco, USA)

The next series deals with ob/ob mice. The series can be described thus: Antidiabetic activity in ob/ob mice. The format is in vivo. As to conditions: 10 days.
The next series relates to GLUT-4. The series can be described thus: GLUT-4 translocation in insulin resistant 3T3 adipocytes (immunofluorescence). As to conditions: 4 days, 200nM insulin stimulated.
In a further series the test system is 3T3-L1 cells. In words: Adipogenesis screen. Particulars: 1.0 µM, positive control; vehicle induced 7-10%. The format is cell-based. Here is the method:
Adipogenesis screening was carried out essentially according to the method of Choi et al. […] Compounds that caused increase in adipogenesis by more than 5-fold of vehicle (0.1% DMSO) were considered positive and were selected for further screening.

The test system of series [4] is db/db mice. The series can be described thus: Dose response experiment in db/db mice, twice daily dosing. Particulars: 5 mg/kg twice daily. The format is in vivo. Here is the method:
The doses were given during 8.00-9.00 am and 5.00-6.00 pm daily. On day 15, blood was collected and plasma samples were analysed as described above.

[5] abbreviates: 150 mg/kg oral once daily, day 10.
The mark [6] stands for this setting: 150 mg/kg oral once daily, day 15.

Description for GLUT-4: GLUT-4 translocation was evaluated by the method of Hausdorff et al [14] with a few modifications. Insulin resistant 3T3 adipocytes were prepared in 24-well plates fitted with coverslip inserts. After incubation with compounds, the media was removed. The cells were stimulated with 200nM insulin and processed for immunofluorescence detection using anti-GLUT-4 antibody (1:1000) followed by FITC labeled secondary antibody (1:1000).
Later the cells were stimulated with 200nmol/l insulin for 25 minutes. Whole cell immunofluorescence assay for GLUT-4 translocation was performed using rabbit antibody against GLUT - 4 followed by incubation with FITC labeled secondary antibody. Confocal images were obtained using Bio-Rad Laser Scanning Microscope.

On to `CN(C)C(=N)N=C(N)N` [Metformin, Metformin hydrochloride, reference compound], for which the “effect on glucose uptake” value in series [1] (1.0 mM, 4 days exposure) is given as “no effect”. Also, in the series with db/db mice [2] (setting [5]), the “decrease in plasma triglyceride” value stood at 18% and the “reduction in plasma glucose” value was 24%. Also, in the series with db/db mice [2] (setting [6]), the “decrease in plasma triglyceride” value was found to be 31% and the “reduction in plasma glucose” value is 25%. In addition, the plasma adiponectin levels in the series on db/db mice [2] (150 mg/kg oral once daily, vehicle 7.5 ± 0.44) was 8.9 ± 0.64 µg/mL. Moreover, the “Liver weight” value with db/db mice [2] (150mg/kg, vehicle 1.8 + 0.10) is 2.1 + 0.08 gm. For the same compound, the “Plasma ALT” value in the series with db/db mice [2] (150mg/kg, vehicle 91.2 + 12.7) is listed as 75.3 + 6.4 U/L. Moreover, in the series with db/db mice [2] (150mg/kg, vehicle 100.6 + 8.8), the “Plasma AST” value is 101.7 + 8.4 U/L. In addition, the “reduction of high initial plasma glucose” value in the series with db/db mice [2] (db/db mice with high initial plasma glucose, 150 mg/kg once daily, 10 days) is on record as 25%. Further, in series [3] (150.0 mg/kg), the “Plasma Glucose (% Reduction)” value came out at 37% and the “Glucose Uptake in soleus muscle (% Increase)” value (“Glucose Uptake … (% Increase)” for short) was 38* %. Moreover, the “Glucose Uptake … (% Increase)” value in series [3] (150.0 mg/kg, listed as metformin) was found to be 38%. For the same compound, in the series on ob/ob mice (150 mg/kg), the “lowering of plasma insulin levels” value was 43%. Moreover, in the series on GLUT-4 (1 mM), the “GLUT-4 translocation to plasma membrane” value is “inactive”.
One may read the EC50 as the midpoint of the concentration-response curve. `CN(CCOc1ccc(CC2SC(=O)NC2=O)cc1)c1ccccn1` (stereo not drawn) [Rosiglitazone, rosiglitazone maleate, reference compound] gave an adipogenesis in the series on 3T3-L1 cells of over 90%. For the same compound, the EC50 in series [1] (Adipocyte, dose response, insulin resistant adipocytes, read-out: EC50 of increase in glucose uptake) is 20 nM. Besides, the “effect on glucose uptake” value in series [1] (rosiglitazone 0.1 µM) was “potentiated glucose uptake and re-sensitized the cells”. For the same compound, the weight gain with db/db mice [4] (15 days) is given as 13%. In the series with db/db mice [4] (day 15), the “decrease in plasma glucose” value is recorded as 60% and the “decrease in plasma triglyceride” value was 40%. Besides, the “decrease in plasma glucose” value with db/db mice [4] (day 15, listed as rosiglitazone) was “about 60%”. In series [3] (5.0 mg/kg), the “Plasma Glucose (% Reduction)” value amounted to 49% and the “Glucose Uptake … (% Increase)” value was 147** %. For the same compound, in series [3] (5.0 mg/kg, listed as rosiglitazone), the “Glucose Uptake … (% Increase)” value is recorded as 147%. Moreover, the “lowering of plasma insulin levels” value in the series with ob/ob mice (5 mg/kg) was determined as 80%. Moreover, in the series with GLUT-4 (0.1 µM), the “GLUT-4 translocation to plasma membrane” value was “caused GLUT-4 translocation”.

The values above are taken from PMC3806773, “Discovery of P1736, a Novel Antidiabetic Compound That Improves Peripheral Insulin Sensitivity in Mice Models” (PLoS ONE, 2013).
